Assay: In vivo pharmacokinetics study in dogs
Set-up: species or system beagle dogs
Description: Experimental purposes: To test the drug concentration in plasma of beagle dogs at different times after intravenous and intragastric administration of the test compound by LC/MS/MS using beagle dogs as the experimental animals. To study the pharmacokinetics of the test compound in beagle dogs in vivo and evaluate their pharmacokinetic characteristics.
Two healthy male and two female beagle dogs were divided into two groups according to the principle of similar body weight, with one male and one female in IV group and one male and one female in PO group. Animals were purchased from Beijing Marshall Biotechnology Co., Ltd.
IV group: Appropriate number of samples were weighed and prepared into 1 mg/mL solution respectively, and the mixture was stirred and ultrasonicated to reach a clear state, and the solvent was 10% HP-β-CD, and the pH value was adjusted to 5.74.
PO group: Appropriate amount of the solution prepared in IV group was diluted to 0.2 mg/mL with 10% HP-β-CD, and the pH value was adjusted to 5.8.
Administration: After fasting overnight, IV group was administered intravenously, and the dosage of the test compound was 1 mg/kg; PO group was administered intragastrically, and the dosage of the test compound was 2 mg/kg.
After the beagle dogs in the intravenous injection group were given the test compound respectively, and 200 μL of blood was collected from the peripheral vein at 0.0833, 0.25, 0.5, 1, 2, 4, 6, 8, 12 and 24 hours, and placed in a commercialized anticoagulant tube added with EDTA-K2 in advance. After intragastric administration of the test compound, 200 μL of blood was collected from the peripheral vein at 0.25, 0.5, 1, 2, 4, 6, 8, 12 and 24 hours, respectively, and placed in a commercialized anticoagulant tube added with EDTA-K2 in advance. After centrifugation (3,200 g, 4° C., 10 minutes), the plasma was collected, transferred to a pre-cooled centrifuge tube, quickly frozen in dry ice, and stored in a refrigerator at −60° C. or lower, until LC-MS/MS analysis. Animals were allowed to eat 4 hours after administration. LC/MS/MS method was used to determine the content of the test compound in the plasma of beagle dogs after intravenous and intragastric administration. The linear range of the method was 2.00 to 2000 nM.

AUC0-last (i.v. 1 mg/kg): 5.078 µM·h
Cl (i.v. 1 mg/kg): 3.44 mL/min/kg
T1/2 (i.v. 1 mg/kg): 23.1 h
Vdss (i.v. 1 mg/kg): 6.60 L/kg
AUC0-last (p.o. 2 mg/kg): 7.963 µM·h
Cmax (p.o. 2 mg/kg): 495 nM
T1/2 (p.o. 2 mg/kg): 19.2 h
F % (p.o. 2 mg/kg vs i.v. 1 mg/kg): 78.2%
SMILES: FCCCN1CC[C@H](Nc2cnc(C3=C(CC(F)(F)F)CCCc4c3ccc3[nH]nc(F)c43)cn2)C1 [Compound 11A]
